Values quoted from earlier work in patent publication US20100172981A1, “Ibuprofen-Effervescent Preparation Having a High Dissolution Rate and Method for the Production thereof” (Losan Pharma GMBH, priority 2006, published 2010).

Settings: general statement in the background section

CC(C)Cc1ccc(C(C)C(=O)O)cc1.[Na] (stereo not shown) [ibuprofen-sodium]
solubility / dissolution in water (words, background): dissolves only slowly in water
